According to patent US10106550B2, “Aza-phenalene-3-ketone derivative, preparation method thereof, and its application as PARP inhibitor” (SUZHOU KANGRUN PHARMACEUTICALS INC., priority 2015, dated 2018):
“And” between values parts separate entries of the source, which are not always exact repeats. Equal entries are not always repeated. Where two headings read alike, the source gives them in different places.

Experiments:
PARP1 = PARP1 (Homo sapiens (Human), UniProt P09874); assay: PARP1 inhibitory activity, Universal PARP colorimetric assay kit (Trevigen); format: biochemical; conditions: for IC50: PARP1
Source text: 1. Measuring PARP1 Inhibitory Activity
1.1 Materials and Methods
Universal PARP colorimetric assay kit (US Trevigen company)

[1] = Preliminary pharmacokinetics study in SD rats (single intravenous injection or oral gavage, plasma LC-MS/MS); format: in vivo; conditions: for AUC(0-inf) / AUC(0-t) / clearance / half-life / Vd / bioavailability / Cmax / Tmax: male, Sprague-Dawley (SD), rat; for Vd: read-out: VdSS; for bioavailability: single oral gavage 10 mg/kg vs intravenous 5 mg/kg, read-out: F (oral bioavailability)
Description: 2. Preliminary Pharmacokinetics Study of Compounds A1, A3, A6 in SD Rats
Healthy SPF SD male rats: 18, weighing 180-220 g, purchased from Shanghai Si Lai Ke Lab Animal Co. Ltd.; animal license no. SOCK (Shanghai) 2013-00016.
Rats were divided into intravenous injection group and oral gavage administration group, and fast for 12-14 hours before experiments. Test compounds' concentration in venous blood was measured. Venous blood was collected by orbital, EDTAK2 anticoagulation. The blood samples were placed on ice, and centrifuged within 30 minutes to separate plasma (centrifugal condition: 5000 rpm/min, 10 min, room temperature). The samples were stored at −80° C. prior to analysis.
Rats in intravenous injection group received a single injection 5 mL/kg of the test compounds. Rats in oral gavage administration group received a single dose 10 mL/kg of the test compounds. Venous blood sample collection times were: before the injection of the test compound (0 hr); after the injection of the test compound: 15 min, 30 min, 1 h, 2 h, 4 h, 6 h, 8 h and 24 h; before the oral gavage administration of the test compound (0 hr) and after the oral gavage administration of the test compounds, 30 min, 1 h, 2 h, 4 h, 6 h, 8 h and 24 h.
Liquid phase conditions: column: Agilent Eclipse plus-C18 (4.6×150 mm, 5.0 μm), mobile phase: 0.1% aqueous formic acid (A)/0.1% formic acid in acetonitrile (B); gradient elution, flow rate: 1.00 mL/min (split v:v=1:1); injection volume: 10 μL.
MS conditions: using electrospray ionization (ESI) and the positive ion mode under multiple reaction monitoring (MRM).
Compounds A1, A3, and A6 were weighed precisely and added to MDSO to prepare 1.00 mg/mL stock solutions. After the stock solutions were diluted to prepare 10000, 5000, 2000, 1000, 500, 100, 50.0, 20.0 ng/mL standard working solutions. Quality control work concentrations include low (30 ng/mL), medium (500 ng/mL), and high (8000 ng/mL).
10 μL plasma sample was added 100 μL verapamil internal standard solution. The mixture was vortexed for 60 seconds and then centrifuged (12000 rpm, 3 min). 70 μL supernatant was transferred to a 96-well plate with equal volume of water in each well. LC-MS/MS analysis was then conducted, and the injection volume was 10 μL.
Data were processed by using WinNonlin 6.3 pharmacokinetic calculation software and non-compartment pharmacokinetic model to obtain major pharmacokinetic parameters.

[2] = in vivo, single intravenous injection, 5 mg/kg
[3] = in vivo, single oral gavage, 10 mg/kg
[4] = plasma, single oral gavage, 10 mg/kg
[5] = single intravenous injection, 5 mg/kg
[6] = plasma, single intravenous injection, 5 mg/kg

Chain of PARP1 (P09874 whole entry): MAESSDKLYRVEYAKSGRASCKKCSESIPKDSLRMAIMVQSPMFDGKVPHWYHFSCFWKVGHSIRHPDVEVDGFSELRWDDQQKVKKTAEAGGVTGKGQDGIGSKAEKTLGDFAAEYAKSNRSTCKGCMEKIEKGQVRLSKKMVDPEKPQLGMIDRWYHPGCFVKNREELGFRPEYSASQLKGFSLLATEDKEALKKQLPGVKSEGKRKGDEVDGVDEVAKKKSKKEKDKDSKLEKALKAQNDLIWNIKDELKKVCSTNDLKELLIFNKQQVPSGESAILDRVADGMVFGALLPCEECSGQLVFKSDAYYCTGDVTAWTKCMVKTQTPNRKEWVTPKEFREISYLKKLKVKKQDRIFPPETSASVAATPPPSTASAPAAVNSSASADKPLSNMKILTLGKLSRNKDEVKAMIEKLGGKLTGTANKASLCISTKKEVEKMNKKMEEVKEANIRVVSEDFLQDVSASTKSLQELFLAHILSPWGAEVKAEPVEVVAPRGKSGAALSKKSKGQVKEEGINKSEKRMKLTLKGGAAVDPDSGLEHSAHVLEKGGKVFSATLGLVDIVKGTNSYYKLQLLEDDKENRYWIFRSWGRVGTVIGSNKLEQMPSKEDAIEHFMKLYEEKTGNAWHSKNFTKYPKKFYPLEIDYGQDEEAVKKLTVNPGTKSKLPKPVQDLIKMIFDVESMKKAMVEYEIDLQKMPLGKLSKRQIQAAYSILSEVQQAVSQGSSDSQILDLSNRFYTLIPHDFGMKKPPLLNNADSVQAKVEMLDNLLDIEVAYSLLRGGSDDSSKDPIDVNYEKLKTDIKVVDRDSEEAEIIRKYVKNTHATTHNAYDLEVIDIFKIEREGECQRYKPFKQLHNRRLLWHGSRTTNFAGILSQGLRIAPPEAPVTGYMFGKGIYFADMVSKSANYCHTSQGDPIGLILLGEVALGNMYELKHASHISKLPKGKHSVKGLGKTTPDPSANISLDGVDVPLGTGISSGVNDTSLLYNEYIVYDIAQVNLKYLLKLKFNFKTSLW

Structure (SMILES) | exposure levels (AUC0-4) [1] | Tmax [1, 4] [min] | AUMC0-inf [1, 5] [h · h · ng · mL^−1] | AUMC0-t [1, 5] [h · h · ng · mL^−1] | Kel [1, 5] [h⁻¹] | MRTIV [1, 5] [min] | AUMC0-inf ([1]; single oral gavage, 10 mg/kg) [h · h · ng · mL^−1] | AUMC0-t ([1]; single oral gavage, 10 mg/kg) [h · h · ng · mL^−1] | CL ([1]; single oral gavage, 10 mg/kg) [mL·min/kg] | Kel ([1]; single oral gavage, 10 mg/kg) [h⁻¹] | MRTPO ([1]; single oral gavage, 10 mg/kg) [min] | Vz ([1]; single oral gavage, 10 mg/kg) [L/kg] | IC50 (PARP1) [nM] | other results
NC(=O)c1ccc(I)c([N+](=O)[O-])c1 [BSI-201, reference compound] |  |  |  |  |  |  |  |  |  |  |  |  |  | inhibition at 1 µM (PARP1; PARP1, 1 μM, read-out: inhibition rate): 22.4%
NC(=O)c1cccc(N)c1 [Compound 3-AB, reference compound] |  |  |  |  |  |  |  |  |  |  |  |  |  | inhibition at 1000 µM (PARP1; PARP1, 1 mM, read-out: inhibition rate): 100%
Cl.O=c1[nH]nc2c3c(cccc13)N=C1CNCCN12 [Compound A1] | higher | 30 | 4190 ± 575 | 3790 ± 547 | 0.463 ± 0.063 | 57.2 ± 6.24 | 9200 ± 336 | 8548 ± 240 | 29.7 ± 3.2 | 0.523 ± 0.046 | 93 ± 12 | 3.62 ± 0.37 | 90.5 | AUC(0-inf) [1, 2]: 4280 ± 317 ng·h/mL; AUC(0-t) [1, 2]: 4250 ± 304 ng·h/mL; clearance [1, 2]: 19.5 ± 1.4 mL/min/kg; half-life [1, 2]: 91.8 ± 9.6 min; Vd [1, 2]: 1.11 ± 0.11 L/kg; bioavailability ([1]; in vivo): 67.5% and 67.1%; AUC(0-inf) [1, 3]: 5740 ± 841 ng·h/mL; AUC(0-t) [1, 3]: 5710 ± 802 ng·h/mL; Cmax [1, 3]: 3120 ± 173 ng/mL; half-life [1, 3]: 80.4 ± 7.2 min
CCN1CCN2C(=Nc3cccc4c(=O)[nH]nc2c34)C1 [Compound A2] |  |  |  |  |  |  |  |  |  |  |  |  | 65.7 | 
CN1CCN2C(=Nc3cccc4c(=O)[nH]nc2c34)C1 [Compound A3] | higher | 15 | 1175 ± 105 | 1145 ± 120 | 1.02 ± 0.034 | 30.4 ± 2.4 | 2658 ± 308 | 2566 ± 474 | 71.3 ± 7.6 | 0.818 ± 0.036 | 64.8 ± 5.64 | 5.22 ± 0.81 | 130 | AUC(0-inf) [1, 6]: 2290 ± 321 ng·h/mL; AUC(0-t) [1, 6]: 2290 ± 323 ng·h/mL; clearance [1, 6]: 38.4 ± 2.5 mL/min/kg; half-life [1, 6]: 43.3 ± 4.92 min; Vd [1, 6]: 1.15 ± 0.07 L/kg; bioavailability ([1]; plasma): 50.5 ± 6.8%; AUC(0-inf) [1, 4]: 2310 ± 309 ng·h/mL; AUC(0-t) [1, 4]: 2340 ± 334 ng·h/mL; Cmax [1, 4]: 1860 ± 251 ng/mL; half-life [1, 4]: 50.9 ± 3.3 min
CC(C)N1CCN2C(=Nc3cccc4c(=O)[nH]nc2c34)C1 [Compound A4] |  |  |  |  |  |  |  |  |  |  |  |  | 111 | 
O=c1[nH]nc2c3c(cccc13)N=C1CN(Cc3ccccc3)CCN12 [Compound A5] |  |  |  |  |  |  |  |  |  |  |  |  | 58.7 | 
C=C(C)CCN1CCN2C(=Nc3cccc4c(=O)[nH]nc2c34)C1 [Compound A6] | higher | 30 | 232 ± 17 | 196 ± 27 | 3.64 ± 0.22 | 13.3 ± 1.56 | 284 ± 29 | 269 ± 33 | 626 ± 93 | 1.77 ± 0.28 | 70.2 ± 5.4 | 31.2 ± 4.8 | 39.1 | AUC(0-inf) [1, 6]: 1040 ± 118 ng·h/mL; AUC(0-t) [1, 6]: 1000 ± 92 ng·h/mL; clearance [1, 6]: 83.1 ± 13.3 mL/min/kg; half-life [1, 6]: 11.5 ± 0.72 min; Vd [1, 6]: 1.1 ± 0.15 L/kg; bioavailability ([1]; plasma): 13 ± 2.1%; AUC(0-inf) [1, 4]: 271 ± 43 ng·h/mL; AUC(0-t) [1, 4]: 264 ± 36 ng·h/mL; Cmax [1, 4]: 259 ± 28 ng/mL; half-life [1, 4]: 30.8 ± 2.46 min
